Source: patent US12344597B2, “Alkoxy-substituted pyridinyl derivatives as LPA1 receptor antagonists and their use in the treatment of fibrosis” (IDORSIA PHARMACEUTICALS LTD, priority 2018, dated 2025)

molecular target: human LPA1 receptor (Homo sapiens (Human), UniProt Q92633); assay: Beta-arrestin recruitment assay to determine IC50 values for human LPAR1; type: cell-based; conditions: antagonist mode, Tango EDG2-bla U2OS cells, LPA 18:1 500 nM final
Procedure, shortened: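 Antagonist IC50 = concentration giving 50% inhibition of maximal LPA response. Read-out is beta-lactamase reporter activity after arrestin-protease recruitment in U2OS cells bearing LPA1-TEV-Gal4-VP16 construct; cells pre-incubated 20 h, 37 °C, 5% CO2.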

human LPA1 receptor, sequence (Q92633 whole entry, the tested form may be a part): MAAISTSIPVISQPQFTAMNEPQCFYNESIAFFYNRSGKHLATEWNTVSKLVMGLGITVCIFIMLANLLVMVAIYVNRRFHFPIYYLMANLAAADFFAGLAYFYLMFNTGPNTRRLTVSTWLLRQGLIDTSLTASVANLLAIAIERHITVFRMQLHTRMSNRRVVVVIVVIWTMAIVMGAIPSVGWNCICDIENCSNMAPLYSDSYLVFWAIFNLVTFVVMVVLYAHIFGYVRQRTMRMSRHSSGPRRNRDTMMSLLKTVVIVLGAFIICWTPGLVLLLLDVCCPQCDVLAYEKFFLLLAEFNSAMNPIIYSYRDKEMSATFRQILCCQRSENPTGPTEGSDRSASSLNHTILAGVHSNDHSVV

Row | IC50 [nM] | Structure (SMILES)
1 | 560 | CCOC(=O)c1ccnc(N2CC(C(=O)Nc3ccc(C)nc3OC(F)F)(c3ccccc3C(C)C)C2)n1 [Ex 18-14, ethyl 2-(3-((2-(difluoromethoxy)-6-methylpyridin-3-yl)carbamoyl)-3-(2-isopropylphenyl)azetidin-1-yl)pyrimidine-4-carboxylate]
2 | 41 | Cc1ccc(NC(=O)C2(c3ccccc3C(C)C)CN(Cc3ccnc(C(=O)O)c3)C2)c(OC(F)F)n1 [Ex 11-51, 4-((3-((2-(difluoromethoxy)-6-methylpyridin-3-yl)carbamoyl)-3-(2-isopropylphenyl)azetidin-1-yl)methyl)picolinic acid]
3 | 17 | Cc1ccc(NC(=O)C2(c3ccccc3C(C)C)CN(C(=O)CC3(O)COC3)C2)c(OC(F)F)n1 [Ex 12-13, N-(2-(difluoromethoxy)-6-methylpyridin-3-yl)-1-(2-(3-hydroxyoxetan-3-yl)acetyl)-3-(2-isopropylphenyl)azetidine-3-carboxamide]
4 | 16 | Cc1ccc(NC(=O)C2(c3ccccc3C(C)C)CN(C(=O)NCC3(C(=O)O)CC3)C2)c(OC(F)F)n1 [Ex 17-15, 1-((3-((2-(difluoromethoxy)-6-methylpyridin-3-yl)carbamoyl)-3-(2-isopropylphenyl)azetidine-1-carboxamido)methyl)cyclopropane-1-carboxylic acid]
5 | 5 | Cc1ccc(NC(=O)C2(c3ccccc3C(C)C)CN(C(=O)C(C)(C)CC(=O)O)C2)c(OC(F)F)n1 [Ex 12-91, 4-(3-((2-(difluoromethoxy)-6-methylpyridin-3-yl)carbamoyl)-3-(2-isopropylphenyl)azetidin-1-yl)-3,3-dimethyl-4-oxobutanoic acid]
6 | 29 | Cc1ccc(NC(=O)C2(c3ccccc3C(C)C)CN(CCOCC(=O)O)C2)c(OC(F)F)n1 [Ex 11-75, 2-(2-(3-((2-(difluoromethoxy)-6-methylpyridin-3-yl)carbamoyl)-3-(2-isopropylphenyl)azetidin-1-yl)ethoxy)acetic acid]
7 | 16 | Cc1ccc(NC(=O)C2(c3ccccc3C(C)C)CN(c3ncc(C(=O)O)n3C)C2)c(OC(F)F)n1 [Ex 18-36, 2-(3-((2-(difluoromethoxy)-6-methylpyridin-3-yl)carbamoyl)-3-(2-isopropylphenyl)azetidin-1-yl)-1-methyl-1H-imidazole-5-carboxylic acid]
8 | 15 | Cc1ccc(NC(=O)C2(c3ccccc3C(C)C)CN(S(=O)(=O)NCCF)C2)c(OC(F)F)n1 [Ex 15-4, N-(2-(difluoromethoxy)-6-methylpyridin-3-yl)-1-(N-(2-fluoroethyl)sulfamoyl)-3-(2-isopropylphenyl)azetidine-3-carboxamide]
9 | 594 | COc1nc(Cl)ccc1NC(=O)C1(c2ccccc2C(C)C)CNC1 [Ex 5, N-(6-chloro-2-methoxypyridin-3-yl)-3-(2-isopropylphenyl)azetidine-3-carboxamide]
10 | 564 | COc1cc(Br)cnc1NC(=O)C1(c2ccccc2C(C)C)CNC1 [Ex 71, N-(5-bromo-3-methoxypyridin-2-yl)-3-(2-isopropylphenyl)azetidine-3-carboxamide]
11 | 155 | Cc1ccc(NC(=O)C2(c3ccccc3C(C)C)CN(C(=O)CNCCC(=O)O)C2)c(OC(F)F)n1 [Ex 44, 3-((2-(3-((2-(difluoromethoxy)-6-methylpyridin-3-yl)carbamoyl)-3-(2-isopropylphenyl)azetidin-1-yl)-2-oxoethyl)amino)propanoic acid]
12 | 2 | CC(C)c1ccccc1C1(C(=O)Nc2ncc(Br)cc2OC(F)F)CN(S(N)(=O)=O)C1 [Ex 81-4, N-(5-bromo-3-(difluoromethoxy)pyridin-2-yl)-3-(2-isopropylphenyl)-1-sulfamoylazetidine-3-carboxamide]
13 | 33 | Cc1ccc(NC(=O)C2(c3ccccc3C3CCOCC3)CN(S(N)(=O)=O)C2)c(OC(F)F)n1 [Ex 30, N-(2-(difluoromethoxy)-6-methylpyridin-3-yl)-1-sulfamoyl-3-(2-(tetrahydro-2H-pyran-4-yl)phenyl)azetidine-3-carboxamide]
